Data as given in PMC9737644, “Facile Synthesis of Some Coumarin Derivatives and Their Cytotoxicity through VEGFR2 and Topoisomerase II Inhibition” (Molecules, 2022).
Where a name gives a salt, the structure may show the parent alone. Read-outs that look alike come from different tables or passages of the source.

What was measured:
HepG2 cells = assay: Cytotoxicity using MTT assay, HepG2; assay type: cell-based; conditions: read-out: IC50 cytotoxicity against HepG2
Method: (§1) Breast cancer (MCF-7) and liver cancer (HepG2) cell lines were collected from National Cancer Institute in Cairo and grown in “RPMI-1640 medium L-Glutamine. The cells were grown in 10% fetal bovine serum (FBS) and 1% penicillin-streptomycin using standard tissue culture protocol. On the second day, cells were grown in triplicate on a 96-well plate at a density of 5 × 10^4 cells and incubated with the investigated compounds at “0.01, 0.1, 1, 10, and 100 µM”. Cell viabilioty was measured with MTT solution. The absorbance was measured using an ELISA microplate reader. After comparing the treated groups to the control, the IC50 values were recorded to indicate the level of viability following previous work.

Topoisomerase II = Topoisomerase II (Homo sapiens, UniProt P11388); assay: Topoisomerase II screening kit
MCF-7 cells = assay: Cytotoxicity using MTT assay, MCF-7; assay type: cell-based; conditions: for IC50: Homo sapiens, MCF7, 48 h, 48 h, read-out: IC50 cytotoxicity against MCF-7; for cell death: MCF-7 cells
Method: as §1

VEGFR2 (KDR) = VEGFR2 (KDR) (Homo sapiens, UniProt P35968); assay: biochemical
Chain of VEGFR2 (KDR) (P35968 20-1356): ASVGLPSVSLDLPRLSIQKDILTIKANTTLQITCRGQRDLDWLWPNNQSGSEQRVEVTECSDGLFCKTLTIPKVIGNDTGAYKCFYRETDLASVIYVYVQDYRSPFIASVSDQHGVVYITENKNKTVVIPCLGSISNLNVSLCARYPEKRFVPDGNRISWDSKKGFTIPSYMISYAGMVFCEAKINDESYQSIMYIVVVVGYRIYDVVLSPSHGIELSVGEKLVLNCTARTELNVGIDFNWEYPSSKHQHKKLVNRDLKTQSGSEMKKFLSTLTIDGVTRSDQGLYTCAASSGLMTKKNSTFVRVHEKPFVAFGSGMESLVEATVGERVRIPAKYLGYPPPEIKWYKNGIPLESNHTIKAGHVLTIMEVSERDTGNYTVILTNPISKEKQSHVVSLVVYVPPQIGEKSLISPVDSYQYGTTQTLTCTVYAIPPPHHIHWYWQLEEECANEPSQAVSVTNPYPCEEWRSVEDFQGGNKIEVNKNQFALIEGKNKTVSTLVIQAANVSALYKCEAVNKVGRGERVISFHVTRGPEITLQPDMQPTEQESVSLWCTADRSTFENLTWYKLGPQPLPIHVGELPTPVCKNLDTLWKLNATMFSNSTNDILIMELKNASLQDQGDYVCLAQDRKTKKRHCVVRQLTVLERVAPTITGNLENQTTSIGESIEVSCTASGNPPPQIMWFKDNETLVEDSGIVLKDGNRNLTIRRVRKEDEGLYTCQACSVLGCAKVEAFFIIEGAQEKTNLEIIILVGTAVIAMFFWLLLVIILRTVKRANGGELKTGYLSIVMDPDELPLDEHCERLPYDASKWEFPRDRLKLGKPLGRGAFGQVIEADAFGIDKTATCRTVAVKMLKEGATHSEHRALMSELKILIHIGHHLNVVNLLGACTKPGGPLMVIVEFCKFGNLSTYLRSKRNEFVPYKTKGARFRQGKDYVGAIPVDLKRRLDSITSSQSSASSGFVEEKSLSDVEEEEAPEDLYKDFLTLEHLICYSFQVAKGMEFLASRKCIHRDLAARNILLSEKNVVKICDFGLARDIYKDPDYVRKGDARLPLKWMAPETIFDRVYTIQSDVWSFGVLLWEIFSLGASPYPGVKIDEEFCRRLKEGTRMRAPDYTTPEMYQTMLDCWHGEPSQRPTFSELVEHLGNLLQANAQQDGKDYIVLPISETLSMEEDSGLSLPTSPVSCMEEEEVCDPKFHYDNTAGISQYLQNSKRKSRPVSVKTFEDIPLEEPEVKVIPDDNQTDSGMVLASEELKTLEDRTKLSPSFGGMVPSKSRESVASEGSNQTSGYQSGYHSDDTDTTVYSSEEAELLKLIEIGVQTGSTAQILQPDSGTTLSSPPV

Chain of Topoisomerase II (P11388 whole entry): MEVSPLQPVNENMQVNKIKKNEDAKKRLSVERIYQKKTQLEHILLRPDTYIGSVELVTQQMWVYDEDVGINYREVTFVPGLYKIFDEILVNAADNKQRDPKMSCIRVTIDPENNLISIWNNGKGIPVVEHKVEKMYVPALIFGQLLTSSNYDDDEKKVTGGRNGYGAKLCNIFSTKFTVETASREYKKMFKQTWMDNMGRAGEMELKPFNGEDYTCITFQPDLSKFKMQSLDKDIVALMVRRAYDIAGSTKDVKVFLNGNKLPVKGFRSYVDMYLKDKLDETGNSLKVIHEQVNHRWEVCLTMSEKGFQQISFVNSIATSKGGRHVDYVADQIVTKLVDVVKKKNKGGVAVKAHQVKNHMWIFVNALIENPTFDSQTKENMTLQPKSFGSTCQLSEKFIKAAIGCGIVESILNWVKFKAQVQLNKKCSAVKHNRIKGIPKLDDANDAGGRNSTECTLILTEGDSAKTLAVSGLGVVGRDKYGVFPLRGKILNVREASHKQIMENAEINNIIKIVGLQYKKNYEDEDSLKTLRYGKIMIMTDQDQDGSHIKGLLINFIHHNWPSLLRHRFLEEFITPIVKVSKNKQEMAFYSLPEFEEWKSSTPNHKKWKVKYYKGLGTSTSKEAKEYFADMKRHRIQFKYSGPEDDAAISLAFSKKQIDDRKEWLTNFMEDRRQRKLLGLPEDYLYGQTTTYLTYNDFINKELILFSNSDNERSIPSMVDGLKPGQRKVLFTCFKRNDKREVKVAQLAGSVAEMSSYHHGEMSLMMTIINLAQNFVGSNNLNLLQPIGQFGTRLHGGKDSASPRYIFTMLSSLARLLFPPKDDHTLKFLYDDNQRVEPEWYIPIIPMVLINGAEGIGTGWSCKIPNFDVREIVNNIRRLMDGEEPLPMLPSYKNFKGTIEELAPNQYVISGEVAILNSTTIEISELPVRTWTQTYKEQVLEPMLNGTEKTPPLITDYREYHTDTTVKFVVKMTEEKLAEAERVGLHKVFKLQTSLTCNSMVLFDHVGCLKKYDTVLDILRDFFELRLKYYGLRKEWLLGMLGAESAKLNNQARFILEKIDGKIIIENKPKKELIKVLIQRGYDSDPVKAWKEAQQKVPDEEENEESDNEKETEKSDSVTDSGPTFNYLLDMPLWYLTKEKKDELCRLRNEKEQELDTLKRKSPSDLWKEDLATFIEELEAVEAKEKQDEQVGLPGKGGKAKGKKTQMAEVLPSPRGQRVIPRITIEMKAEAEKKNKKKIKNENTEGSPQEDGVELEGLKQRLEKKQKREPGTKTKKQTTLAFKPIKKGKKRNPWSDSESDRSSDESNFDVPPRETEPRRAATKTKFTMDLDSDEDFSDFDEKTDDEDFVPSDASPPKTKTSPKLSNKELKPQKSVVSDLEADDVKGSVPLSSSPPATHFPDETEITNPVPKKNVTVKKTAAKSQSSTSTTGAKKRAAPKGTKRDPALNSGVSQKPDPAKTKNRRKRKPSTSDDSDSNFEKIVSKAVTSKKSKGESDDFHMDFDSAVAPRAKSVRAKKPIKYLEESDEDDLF

Compound | melting point | further results
COC(=O)CNC(=O)c1cc2ccccc2oc1=O (as salt: hydrochloride) [4a, Methyl [(2-oxo-2H-chromene-3-carbonyl)-amino] ethanoate] | 173 to 175 °C | –
COC(=O)C[C@H](NC(=O)c1cc2ccccc2oc1=O)C(=O)OC (as salt: succinate) [4g, Dimethyl 2-[(2-oxo-2H-chromene-3-carbonyl)-amino] succinate] | 69 to 71 °C | –
COC(=O)[C@H](C)NC(=O)c1cc2ccccc2oc1=O [4b, Methyl 2-[(2-oxo-2H-chromene-3-carbonyl)-amino] propanoate] | 104 to 106 °C | –
COC(=O)CCNC(=O)c1cc2ccccc2oc1=O [4c, Methyl 3-[(2-oxo-2H-chromene-3-carbonyl)-amino] propanoate] | 135 to 137 °C | –
COC(=O)C(CO)NC(=O)c1cc2ccccc2oc1=O (stereo not shown) [4d, Methyl 3-hydroxy-2-[(2-oxo-2H-chromene-3-carbonyl)-amino]-propanoate] | 177 to 179 °C | –
COC(=O)C(NC(=O)c1cc2ccccc2oc1=O)C(C)C (stereo not shown) [4e, Methyl 3-methyl-2-[(2-oxo-2H-chromene-3-carbonyl)-amino] butanoate] | 75 to 77 °C | –
COC(=O)[C@H](CC(C)C)NC(=O)c1cc2ccccc2oc1=O [4f, Methyl 4-methyl-2-[(2-oxo-2H-chromene-3-carbonyl)-amino] pentan-oate] | 95 to 97 °C | –
COC(=O)CC[C@H](NC(=O)c1cc2ccccc2oc1=O)C(=O)OC [4h, Dimethyl 2-[(2-oxo-2H-chromene-3-carbonyl)-amino] pentanedioate] | 64 to 66 °C | –
COC(=O)[C@H](CCSC)NC(=O)c1cc2ccccc2oc1=O [4i, Methyl 4-methylsulfanyl-2-[(2-oxo-2H-chromene-3-carbonyl)-amino] butanoate] | 81 to 83 °C | –
COC(=O)C(NC(=O)c1cc2ccccc2oc1=O)c1ccccc1 (stereo not shown) [4j, Methyl [(2-oxo-2H-chromene-3-carbonyl)-amino]-phenylacetate] | 189 to 192 °C | –
COC(=O)C(Cc1ccc(O)cc1)NC(=O)c1cc2ccccc2oc1=O (stereo not shown) [4k, Methyl 3-(4-hydroxyphenyl)-2-[(2-oxo-2H-chromene-3-carbonyl)-amino]-propanoate] | – | IC50 (HepG2 cells; 48 h): 9.44 µM; IC50 (HepG2 cells; Homo sapiens, HepG2, 48 h): 9.4 µM; IC50 (Topoisomerase II): 4.1 ± 0.64 µM; IC50 (MCF-7 cells): 4.98 µM; cell death (MCF-7 cells): 97.82%; IC50 (VEGFR2 (KDR)): 23.6 ± 1.19 µM
COC(=O)C(Cc1c[nH]c2ccccc12)NC(=O)c1cc2ccccc2oc1=O (stereo not shown) [4l, Methyl 3-(1H-Indol-3-yl)-2-[(2-oxo-2H-chromene-3-carbonyl)-amino]-propanoate] | 138 to 139 °C | –
O=C(O)CCNC(=O)c1cc2ccccc2oc1=O [5c, 3-[(2-Oxo-2H-chromene-3-carbonyl)-amino]-propanoic acid] | 195 to 197 °C | –
CC(C)C(NC(=O)c1cc2ccccc2oc1=O)C(=O)O (stereo not shown) [5e, 3-Methyl-2-[(2-oxo-2H-chromene-3-carbonyl)-amino] butanoic acid] | 210 to 212 °C | –
CSCCC(NC(=O)c1cc2ccccc2oc1=O)C(=O)O (stereo not shown) [5i, 4-Methylsulfanyl-2-[(2-oxo-2H-chromene-3-carbonyl)-amino]-butanoic acid] | 108 to 109 °C | –
COC(=O)C(CCSC)NC(=O)CCNC(=O)c1cc2ccccc2oc1=O (stereo not shown) [6c, Methyl 4-methylsulfanyl-2-{3-[(2-oxo-2H-chromene-3-carbonyl)-amino]-propionylamino}-butanoate] | – | IC50 (HepG2 cells; 48 h): 33.8 µM; IC50 (HepG2 cells; Homo sapiens, HepG2, 48 h): 33.9 µM; IC50 (Topoisomerase II): 8.6 ± 0.15 µM; IC50 (MCF-7 cells): 5.85 µM; cell death (MCF-7 cells): 97.35%; IC50 (VEGFR2 (KDR)): 34.2 ± 1.06 µM

Further lines, with some results ahead:

melting point | Compound | further results
127 to 128 °C | COC(=O)CCNC(=O)CCNC(=O)c1cc2ccccc2oc1=O [6a, Methyl 3-{3-[(2-oxo-2H-chromene-3-carbonyl)-amino]-propionylamino} propanoate] | –
101 to 103 °C | COC(=O)C(NC(=O)CCNC(=O)c1cc2ccccc2oc1=O)C(C)C (stereo not shown) [6b, Methyl 3-Methyl-2-{3-[(2-oxo-2H-chromene-3-carbonyl)-amino]-propionyl-amino}-butanoate] | –
149 to 151 °C | COC(=O)CCNC(=O)C(NC(=O)c1cc2ccccc2oc1=O)C(C)C (stereo not shown) [7a, Methyl 3-{3-methyl-2-[(2-oxo-2H-chromene-3-carbonyl)-amino]-butyryl-amino}-propanoate] | –
97 to 99 °C | COC(=O)C(NC(=O)C(NC(=O)c1cc2ccccc2oc1=O)C(C)C)C(C)C (stereo not shown) [7b, Methyl 3-Methyl-2-{3-methyl-2-[(2-oxo-2H-chromene-3-carbonyl)-amino]-butyrylamino}-butanoate] | –
100 to 101 °C | COC(=O)[C@H](CCSC)NC(=O)[C@@H](NC(=O)c1cc2ccccc2oc1=O)C(C)C [7c, Methyl 2-{3-methyl-2-[(2-oxo-2H-chromene-3-carbonyl)-amino]-butyrylamino} -4-methylsulfanyl butanoate] | –
104 to 105 °C | COC(=O)CCNC(=O)C(CCSC)NC(=O)c1cc2ccccc2oc1=O (stereo not shown) [8a, Methyl 3-{4-methylsulfanyl-2-[(2-oxo-2H-chromene-3-carbonyl)-amino]-butyrylamino}-propanoate] | –
98 to 99 °C | COC(=O)C(NC(=O)C(CCSC)NC(=O)c1cc2ccccc2oc1=O)C(C)C (stereo not shown) [8b, Methyl 3-methyl-2-{4-methylsulfanyl-2-[(2-oxo-2H-chromene-3-carbonyl)-amino]-butyrylamino}-butanoate] | –
109 to 111 °C | COC(=O)C(CCSC)NC(=O)C(CCSC)NC(=O)c1cc2ccccc2oc1=O (stereo not shown) [8c, Methyl 4-methylsulfanyl-2-{4-methylsulfanyl-2-[(2-oxo-2H-chromene-3-carbonyl)-amino]-butyrylamino}-butanoate] | –
